# Laboratory results: a melting point compilation (Tetko et al.; mined from patent text by program, amines drawn as free bases though some values may be those of a salt)
row,melting point,Structure (SMILES)
1,> 239 °C,COc1ccccc1CN[C@H]1CCCN[C@H]1c1ccsc1 (relative stereo)
2,> 200 °C,COc1cc(Nc2c(C#N)cnc3cc(C#Cc4cnn(CCN5CCOCC5)c4)sc23)c(Cl)cc1Cl
3,75.9 to 81 °C,CC(C)CCCC(C)C1CCC2C3CC=C4CC(OCCCCCCO)CCC4(C)C3CCC12C (centres undefined)
4,151 to 153 °C,COc1ccc2sc(C(N)=O)c(SCc3ccccc3)c2c1
5,65 to 67 °C,CN(C)[C@H]1CC[C@H](NC(=O)OC(C)(C)C)C1
6,210 to 212 °C,O=S(=O)(NCCO)c1c[nH]c(-c2ccc(Cl)cc2)n1
7,70 to 72 °C,COc1ccccc1-c1ccc(C)cc1
8,145 to 149 °C,OC(CCCN1CCc2c(c3cc(F)ccc3n2-c2ccc(F)cc2)C1)c1ccc(F)cc1 (centres undefined)
9,195 °C,COCOCC(=O)C1CCC2C3CCC4=CC(=O)CCC4(C)C3CCC12C (centres undefined)
10,279 to 283 °C,N#Cc1ccc2ccc(C(=O)O)cc2c1
11,100 to 102 °C,CCCCc1nnc(SC)n1Cc1ccc(-c2ccccc2-c2nnn[nH]2)cc1
12,> 250 °C,COc1cc2c(N)nc(N3CCN(c4nc5ccccc5s4)CC3)nc2c(OC)c1OC
13,78 to 80 °C,COc1cccc([N+](=O)[O-])c1NC(=O)OCc1ccccc1
14,150 to 151 °C,COc1ccc2c(c1)C(=O)c1c-2c(N2CCNCC2)nc2ccccc12
15,110 °C,Cc1cccc(C(=O)O)c1N(C)S(=O)(=O)c1ccc(OCCCCNC(=O)c2ccc3c(c2)OCO3)cc1
16,153 °C,CCCc1nc(C)n2cnnc2c1Cc1ccc(-c2ccccc2C#N)cc1
17,165 °C,CCOC(=O)COC1=C(C(=O)Nc2cc(Cl)cc(Cl)c2)SC2=NCCCN21
18,163 to 165 °C,CC(C)(C)C(=O)Oc1c(N2CCCC2)c(=O)n(-c2ccccc2)c2ncccc12

# The next lines start with the compound.
row,Structure (SMILES),melting point
1,CCOC(=O)c1c(C)nc(N2CCN(C)CC2)c2nnn(CC)c12,63 to 65 °C
2,CCN1CCN(CC)c2cc(Nc3nc(Cl)ncc3Cl)ccc2C1=O,71 to 74 °C
3,O=C1CCC(N2Cc3c(OCc4nc(CN5CCOCC5)cs4)cccc3C2=O)C(=O)N1 (centres undefined),218 to 220 °C
4,Cc1ccccc1OC(C)C(=O)OC1CC(O)C=C2C=CC(C)C(CCC3CC(O)CC(=O)O3)C21 (mixture of isomers),85 to 87 °C
5,Clc1ccc(C2(c3ccc4noc(-c5ccccc5)c4c3)OCCO2)cc1,143 °C
6,CCNC(=O)C(C)NS(=O)(=O)c1ccc(C)cc1 (racemic),106 to 107 °C
7,CC(=O)Nc1ncc2c(n1)-c1sc(NC(C)=O)nc1CC2,> 310 °C
8,O=C1Nc2ccccc2N(C(=O)N2CCCC(CCCN3CCCC3)C2)c2ncccc21 (centres undefined),174 to 176 °C
9,Cc1ccc(OP(Oc2ccc(C)cc2C(C)(C)C)Oc2ccc(C)cc2C(C)(C)C)c(C(C)(C)C)c1,114 to 115 °C
10,Cc1cc(SC2=C(O)CC(CCc3ccc(O)cc3)(C3CCCCC3)OC2=O)c(C(C)(C)C)cc1OS(=O)(=O)c1ccc(C#N)cc1 (centres undefined),112 °C
11,CNC(=O)C(=NO)c1ccccc1CO,128 to 131 °C
12,COC(=O)NNC(=O)Nc1cccc2c1C(=O)c1c-2n[nH]c1-c1ccc(OC)cc1,> 300 °C
13,Cc1cncn1Cc1cc(C(C)(C)O)cc(C(C)(C)C#N)c1,128 to 131 °C
14,CCOC(=O)C1=C(C(C)C)Nc2n[nH]cc2C1c1ccccc1Cl (centres undefined),211 to 213 °C
15,CC(C)(C)c1cc2c(Cl)ncnc2o1,72 to 74 °C
16,CCC(C)(Cc1c[nH]c2ccccc12)[N+](=O)[O-] (centres undefined),79.5 to 80 °C

row,Structure (SMILES),melting point
1,Cn1nnnc1SCc1ccccc1,48.5 to 49.5 °C
2,COC(=O)Cc1ccsc1-c1ccccc1,29 to 31 °C
3,CCOC(=O)c1cc2cccnc2[nH]1,153 to 156 °C
4,CCCC(=O)Nc1cnc2cccnc2c1O,> 360 °C
5,Cc1cc(-n2ccnc2)c2cccc(OCc3c(Cl)ccc(S(=O)(=O)N4CCC[C@H]4C(=O)NCC4CCN(CC(=O)OC(C)(C)C)CC4)c3Cl)c2n1,100 °C
6,CC1=C(C(=O)Nc2cccc(C#N)c2)SCCO1,119 to 121 °C
7,Cc1nc2c3ccccc3ccn2c1Cc1nnn[nH]1,256 to 257 °C
8,CNC(=O)[C@H]1S[C@@H](n2cnc3c(N)nc(Cl)nc32)[C@H](O)[C@@H]1O,233 to 235 °C
9,O=[N+]([O-])c1cccnc1Oc1ccc2c(c1)OCC(c1ccccc1)O2 (centres undefined),< 60 °C
10,CCOc1nc(OCC)c2cscc2n1,84 to 86 °C
11,CCN1OCC(=Cc2cc(C(C)(C)C)c(O)c(C(C)(C)C)c2)C1=O,189 to 191 °C
12,CNCC(O)C1=CC2(CCCC2)c2ccccc21 (centres undefined),75 to 77 °C
13,CC(C)(C)c1cc(SCc2ccc(C(=O)O)cc2)cc(C(C)(C)C)c1O,171 °C
14,CCCCCCC(c1nccn1C)n1cnc2cc(-c3ccccc3-c3nn[nH]n3)ccc21 (centres undefined),88 to 93 °C
15,CC(C)(C)[N+]([O-])=Cc1cc(Cl)cc(Cl)c1O,103 °C
